Among the data in patent US6344562B1, “Thiazole derivatives” (Hoffmann-La Roche Inc., priority 1998, dated 2002) are melting point values, retold here.

Structures can show the parent of a compound that is named as a salt.

By melting point is commonly meant the temperature, or range, at which the solid turns liquid. `N=C(N)Nc1nc(C(=O)NCCCC(CC(=O)O)c2ccccc2)cs1` (racemic) [Example 17, (RS)-6-[(2-guanidino-thiazole-4-carbonyl)-amino]-3-phenyl-hexanoic acid]: the melting point was 230 °C.

Regarding `CC(=O)O.Cc1nc(N=C2NCCCN2)sc1C(=O)NCCCCC(CC(=O)O)c1ccccc1.Cl` (racemic), the melting point fell in the range of 60 to 63 °C.

Consider `CCOC(=O)CC(NC(=O)c1cccc(NC(=O)c2sc(NC(=N)N)nc2C)c1)c1ccccc1` (racemic) [Example 10, ethyl rac-3-[3-[(2-guanidino-4-methyl-thiazole-5-carbonyl)-amino]-benzoylamino]-3-phenyl-propionate], for which the melting point is 177 °C.

`O=C(O)CCCC(=O)CNC(=O)c1csc(NC(=O)NCc2ccccc2)n1` [Example 83, 6-{[2-(3-benzyl-ureido)-thiazole-4-carbonyl]-amino}-5-oxo-hexanoic acid] had a melting point of 169 °C.

`O=C(O)C(F)(F)F.O=C(O)C[C@H](NC(=O)CCCc1csc(NC(=O)NCc2ccccc2)n1)C(=O)NCc1ccccc1` had a melting point of 159 °C.

Molecule `O=C(O)CCc1ccc(NC(=O)c2csc(NC(=O)NCc3ccccc3)n2)cc1` [Example 154, 3-[4-[[2-(3-benzyl-ureido)-thiazole-4-carbonyl]-amino]-phenyl]-propionic acid] displayed a melting point of 233 °C.

`CCOC(=O)CC(NC(=O)CCNC(=O)c1sc(NC(=N)N)nc1C)c1ccccc1` (racemic) [Example 26, ethyl rac-3-[3-[(2-guanidino-4-methyl-thiazole-5-carbonyl)-amino]-propionylamino]-3-phenyl-propionate] displayed a melting point of 106 to 107 °C.

Take `COc1cccc(NC(=O)[C@H](CC(=O)O)NC(=O)CNC(=O)c2csc(NC(=O)NCc3ccccc3)n2)c1` [Example 134, (S)-3-[2-[[2-(3-benzyl-ureido)-thiazole-4-carbonyl]-amino]-acetylamino]-N-(3-methoxy-phenyl)-succinamic acid]: the melting point was 185 °C.

`CC(C)[C@H](NC(=O)[C@H](CC(=O)O)NC(=O)CNC(=O)c1csc(NC(=O)NCc2ccccc2)n1)C(=O)O` (as salt: trifluoroacetate) [Example 142, (S)-2-[(S)-2-(2-{[2-(3-benzyl-ureido)-thiazole-4-carbonyl]-amino}-acetylamino)-3-carboxy-propionylamino]-3-methyl-butyric acid] came in with a melting point of 93 to 98 °C.

`Cc1nc(NC(=N)N)sc1C(=O)NCCC(=O)NCCC(=O)O.Cl.Cl` gave a melting point of 170 °C.

For the molecule `N=C(N)Nc1ncc(C(=O)Nc2cccc(C(=O)NC(CC(=O)O)c3ccccc3)c2)s1` (racemic) [Example 73, (RS)-3-[3-[(2-guanidino-thiazole-5-carbonyl)-amino]-benzoylamino]-3-phenyl-propionic acid], the melting point was determined as 196 °C.

`O=C(O)C[C@H](NC(=O)CNC(=O)c1csc(NC(=O)NCc2ccccc2)n1)C(=O)NCc1cccnc1` (as salt: trifluoroacetate) [Example 164, (S)-3-[2-[[2-(3-benzyl-ureido)-thiazole-4-carbonyl]-amino]-acetylamino]-N-pyridin-3-ylmethyl-succinamic acid] displayed a melting point of 135 °C.

As to `CCOC(=O)CC(NC(=O)c1cccc(NC(=O)c2csc(NC(=N)N)n2)c1)c1ccccc1` (racemic) [Example 18, ethyl (RS)-3-[3-[(2-guanidino-thiazole-4-carbonyl)-amino]-benzoylamino]-3-phenyl-propionate], the melting point was found to be 117 °C.

In the case of `CC(C)[C@H](NC(=O)[C@H](CC(=O)OC(C)(C)C)NC(=O)CNC(=O)c1csc(NC(=O)NCc2ccccc2)n1)C(=O)OC(C)(C)C` [Example 141, tert-butyl (S)-2-[(S)-2-[2-[[2-(3-benzyl-ureido)-thiazole-4-carbonyl]-amino]-acetylamino]-3-tert-butoxycarbonyl-propionylamino]-3-methyl-butyrate], the melting point fell in the range of 108 to 111 °C.

The molecule `CCOC(=O)CCNC(=O)CCNC(=O)c1csc(NC(=N)N)n1` [Example 7, ethyl 3-[3-[(2-guanidino-thiazole-4-carbonyl)-amino]-propionylamino]-propionate] yielded a melting point of 154 to 157 °C.

`CCc1nc(NC(=N)N)sc1-c1cccc(NC(=O)CC(CC(=O)O)c2ccccc2)c1` (racemic) (as salt: salt) [Example 91, rac-4-[3-(4-ethyl-2-guanidino-thiazol-5-yl)-phenylcarbamoyl]-3-phenyl-butyric acid] came in with a melting point of 186 to 188 °C.

`CC(C)(C)OC(=O)CCNC(=O)c1cccc(NC(=O)c2csc(NC(=O)NCc3ccccc3)n2)c1` [Example 169, tert-butyl 3-(3-{[2-(3-benzyl-ureido)-thiazole-4-carbonyl]-amino}-benzoylamino)-propionate] yielded a melting point of 212 °C.

The molecule `O=C(O)CCNC(=O)CNC(=O)c1csc(NC(=O)NCc2ccccc2)n1` (as salt: hydrochloride) [Example 132, 3-[2-[[2-(3-benzyl-ureido)-thiazole-4-carbonyl]-amino]-acetylamino]-propionic acid] showed a melting point of 174 °C.

Regarding `COC(=O)CCCCCNC(=O)c1csc(NC(=O)NCc2ccccc2)n1` [Example 137, methyl 6-{[2-(3-benzyl-ureido)-thiazole-4-carbonyl]-amino}-hexanoate], the melting point was 140 °C.

`CCOC(=O)CCc1ccc(NC(=O)c2csc(NC(=O)NCc3ccccc3)n2)cc1` [Example 153, ethyl 3-[4-[[2-(3-benzyl-ureido)-thiazole-4-carbonyl]-amino]-phenyl]-propionate] yielded a melting point of 194 °C.

`CC(C)(C)OC(=O)C[C@H](NC(=O)CNC(=O)c1csc(NC(=O)NCc2ccccn2)n1)C(=O)NCc1ccccn1` [Example 167, tert-butyl (S)-N-pyridin-2-ylmethyl-3-(2-{[2-(3-pyridin-2-ylmethyl-ureido)-thiazole-4-carbonyl]-amino}-acetylamino)-succinamate] came in with a melting point of 112 °C.

In the case of `CCOC(=O)CC(NC(=O)c1cccc(NC(=O)c2cnc(NC(=N)N)s2)c1)c1ccccc1` (racemic) [Example 72, ethyl (RS)-3-{3-[(2-guanidino-thiazole-5-carbonyl)-amino]-benzoylamino}-3-phenyl-propionate], the melting point was found to be 149 °C.

In turn, `CC(C)(C)OC(=O)C[C@H](NC(=O)CNC(=O)c1csc(NC(=O)NCc2ccccc2)n1)C(=O)Nc1ccccc1C(=O)OC(C)(C)C` [Example 135, tert-butyl (S)-2-[2-[2-[[2-(3-benzyl-ureido)-thiazole-4-carbonyl]-amino]-acetylamino]-3-tert-butoxycarbonyl-propionylamino]-benzoate] displayed a melting point of 116 °C.

Turning to `O=C(O)C[C@H](NC(=O)CNC(=O)c1csc(NC(=O)NCc2ccccc2)n1)C(=O)NCc1ccccc1` (as salt: trifluoroacetate) [Example 130, (S)-N-benzyl-3-[2-[[2-(3-benzyl-ureido)-thiazole-4-carbonyl]-amino]-acetylamino]-succinamic acid], the melting point is 193 °C.

For `CCOC(=O)CC(NC(=O)c1ccc(OC)c(NC(=O)c2sc(NC(=N)N)nc2C)c1)c1ccccc1` (racemic) [Example 78, ethyl (RS)-3-{3-[(2-guanidino-4-methyl-thiazole-5-carbonyl)-amino]-4-methoxy-benzoylamino}-3-phenyl-propionate], the melting point fell in the range of 123 to 126 °C.
